Assay results as given in PubChem BioAssay AID248 (DTP/NCI, 2004).
Several values for one entry are separate records, joined by “and”; a condition that tells them apart may be missing. Equal entries are not always repeated. Toxic doses and inconclusive results are not listed. Cut-off read from the data, not from the text of the source: active = T/C of 150% or more; inactive = T/C below 125%.

Tested on: L1210 leukemia ip in BDF1 mice, survival T/C
Experiment: NCI In Vivo Anticancer Drug Screen. Data for tumor model L1210 Leukemia (intraperitoneal) in B6D2F1 (BDF1) mice
Conditions: endpoint: mean survival time, higher = longer survival
Summary of the method: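 In this screen, tumor-bearing mice given compound are compared to those given vehicle, and their survival values are reported as a treated-to-control quotient.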

[1] = dose: 100.0 mg/kg/injection, schedule: Q01DX009 (ip), vehicle: Klucel (hydroxypropylcellulose) (HPC)
[2] = dose: 100.0 mg/kg/injection, schedule: Q04DX002 (ip), vehicle: Klucel (hydroxypropylcellulose) (HPC)
[3] = dose: 200.0 mg/kg/injection, schedule: Q01DX009 (ip), vehicle: Klucel (hydroxypropylcellulose) (HPC)
[4] = dose: 200.0 mg/kg/injection, schedule: Q04DX002 (ip), vehicle: Klucel (hydroxypropylcellulose) (HPC)
[5] = dose: 400.0 mg/kg/injection, schedule: Q01DX009 (ip), vehicle: Klucel (hydroxypropylcellulose) (HPC)
[6] = dose: 400.0 mg/kg/injection, schedule: Q04DX002 (ip), vehicle: Klucel (hydroxypropylcellulose) (HPC)
[7] = dose: 100.0 mg/kg/injection, schedule: Q01DX009 (ip), vehicle: saline with Tween-80
[8] = dose: 200.0 mg/kg/injection, schedule: Q01DX009 (ip), vehicle: saline with Tween-80
[9] = dose: 400.0 mg/kg/injection, schedule: Q01DX009 (ip), vehicle: saline with Tween-80
[10] = dose: 100.0 mg/kg/injection, schedule: Q01DX009 (ip), vehicle: gum acacia
[11] = dose: 200.0 mg/kg/injection, schedule: Q01DX009 (ip), vehicle: gum acacia
[12] = dose: 100.0 mg/kg/injection, schedule: Q01DX001 (ip), vehicle: carboxymethylcellulose (CMC)
[13] = dose: 200.0 mg/kg/injection, schedule: Q01DX001 (ip), vehicle: carboxymethylcellulose (CMC)
[14] = dose: 400.0 mg/kg/injection, schedule: Q01DX001 (ip), vehicle: carboxymethylcellulose (CMC)
[15] = dose: 100.0 mg/kg/injection, schedule: Q04DX003 (ip), vehicle: Klucel (hydroxypropylcellulose) (HPC)
[16] = dose: 200.0 mg/kg/injection, schedule: Q04DX003 (ip), vehicle: Klucel (hydroxypropylcellulose) (HPC)
[17] = dose: 400.0 mg/kg/injection, schedule: Q04DX003 (ip), vehicle: Klucel (hydroxypropylcellulose) (HPC)

Measured: T/C

C/C(=C\c1ccccc1)C(=O)c1ccccc1
inactive: dose: 6.25 mg/kg/injection, schedule: Q01DX009 (ip), vehicle: water 109 % of control | dose: 12.5 mg/kg/injection, schedule: Q01DX009 (ip), vehicle: water 107 % of control | dose: 25.0 mg/kg/injection, schedule: Q01DX009 (ip), vehicle: water 101 % of control and 91 % of control | dose: 50.0 mg/kg/injection, schedule: Q01DX009 (ip), vehicle: water 95 % of control and 112 % of control | [1] 93 % of control | dose: 100.0 mg/kg/injection, schedule: Q01DX009 (ip), vehicle: other 113 % of control | dose: 100.0 mg/kg/injection, schedule: Q01DX009 (ip), vehicle: water 101 % of control and 106 % of control | [2] 100 % of control | dose: 100.0 mg/kg/injection, schedule: Q04DX003 (ip), vehicle: other 101 % of control | [3] 98 % of control | dose: 200.0 mg/kg/injection, schedule: Q01DX009 (ip), vehicle: other 101 % of control | dose: 200.0 mg/kg/injection, schedule: Q01DX009 (ip), vehicle: water 104 % of control and 107 % of control | [4] 92 % of control | dose: 200.0 mg/kg/injection, schedule: Q04DX003 (ip), vehicle: other 101 % of control | [5] 105 % of control | dose: 400.0 mg/kg/injection, schedule: Q01DX009 (ip), vehicle: other 108 % of control | dose: 400.0 mg/kg/injection, schedule: Q01DX009 (ip), vehicle: water 106 % of control | [6] 95 % of control | dose: 400.0 mg/kg/injection, schedule: Q04DX003 (ip), vehicle: other 100 % of control

CC(C)(C)c1ccc(S(=O)(=O)c2ccc(C(C)(C)C)c([N+](=O)[O-])c2)cc1[N+](=O)[O-]
inactive: [2] 101 % of control | [4] 92 % of control | [6] 105 % of control

C[N+](C)(CC(=O)Nc1ccc(Cl)cc1)Cc1ccc2c(c1)CCCC2
inactive: dose: 6.25 mg/kg/injection, schedule: Q04DX002 (ip), vehicle: saline with Tween-80 90 % of control | dose: 12.5 mg/kg/injection, schedule: Q04DX002 (ip), vehicle: saline with Tween-80 90 % of control | dose: 25.0 mg/kg/injection, schedule: Q04DX002 (ip), vehicle: saline with Tween-80 90 % of control and 91 % of control

Brc1c(N=Cc2ccccc2)ccc2ccccc12
inactive: [7] 94 % of control | dose: 100.0 mg/kg/injection, schedule: Q04DX003 (ip), vehicle: saline with Tween-80 102 % of control | [8] 87 % of control | dose: 200.0 mg/kg/injection, schedule: Q04DX003 (ip), vehicle: saline with Tween-80 102 % of control | [9] 89 % of control | dose: 400.0 mg/kg/injection, schedule: Q04DX003 (ip), vehicle: saline with Tween-80 89 % of control

CC(C)C1=CCC2C(=C1)CCC1C(C)(C(N)=O)CCCC21C (centres undefined)
inactive: [7] 102 % of control | [8] 92 % of control | [9] 89 % of control

COc1ccc(C2NC(=O)N3C(c4ccc(OC)cc4)NC(=O)N23)cc1 (centres undefined)
inactive: [10] 105 % of control | dose: 100.0 mg/kg/injection, schedule: Q04DX003 (ip), vehicle: gum acacia 97 % of control | [11] 89 % of control | dose: 400.0 mg/kg/injection, schedule: Q01DX009 (ip), vehicle: gum acacia 93 % of control | dose: 400.0 mg/kg/injection, schedule: Q04DX003 (ip), vehicle: gum acacia 94 % of control

COc1cc([N+](=O)[O-])ccc1NC(=O)Nc1cccc(C(F)(F)F)c1
inactive: [10] 92 % of control | [11] 92 % of control

CSC(=N)c1cccc(OCCOc2ccccc2)c1
inactive: dose: 50.0 mg/kg/injection, schedule: Q01DX009 (ip), vehicle: Klucel (hydroxypropylcellulose) (HPC) 96 % of control | [1] 102 % of control | [3] 96 % of control

C[n+]1c(/C=C/c2ccnc3c(O)cccc23)sc2ccccc21
inactive: dose: 15.0 mg/kg/injection, schedule: Q01DX001 (ip), vehicle: saline 105 % of control | dose: 30.0 mg/kg/injection, schedule: Q01DX001 (ip), vehicle: saline 97 % of control

O=C(/C(=C/c1ccc(F)cc1)c1ccccc1)c1ccc(O)cc1
inactive: [12] 92 % of control | [13] 110 % of control | [14] 94 % of control

Nc1ccc(CCCC(=O)NCc2cccnc2)cc1
inactive: [7] 105 % of control | [8] 94 % of control | [9] 96 % of control

Nc1nccnc1C(=O)NOCc1ccccc1
inactive: dose: 25.0 mg/kg/injection, schedule: Q04DX002 (ip), vehicle: Klucel (hydroxypropylcellulose) (HPC) 90 % of control | dose: 50.0 mg/kg/injection, schedule: Q04DX002 (ip), vehicle: Klucel (hydroxypropylcellulose) (HPC) 90 % of control | [2] 101 % of control and 111 % of control | [4] 105 % of control | [6] 96 % of control and 97 % of control

CC(=NC(c1ccccc1)c1ccccc1)N(C)C
inactive: dose: 100.0 mg/kg/injection, schedule: Q04DX002 (ip), vehicle: saline with Tween-80 104 % of control

CCOC(=O)OCc1ccco1
inactive: [12] 94 % of control | dose: 100.0 mg/kg/injection, schedule: Q01DX009 (ip), vehicle: carboxymethylcellulose (CMC) 101 % of control and 103 % of control | dose: 100.0 mg/kg/injection, schedule: Q04DX002 (ip), vehicle: carboxymethylcellulose (CMC) 98 % of control and 100 % of control | dose: 100.0 mg/kg/injection, schedule: Q04DX003 (ip), vehicle: carboxymethylcellulose (CMC) 102 % of control | [13] 89 % of control | dose: 200.0 mg/kg/injection, schedule: Q01DX009 (ip), vehicle: carboxymethylcellulose (CMC) 97 % of control and 109 % of control | dose: 200.0 mg/kg/injection, schedule: Q04DX002 (ip), vehicle: carboxymethylcellulose (CMC) 98 % of control and 101 % of control | dose: 200.0 mg/kg/injection, schedule: Q04DX003 (ip), vehicle: carboxymethylcellulose (CMC) 96 % of control | [14] 110 % of control | dose: 400.0 mg/kg/injection, schedule: Q04DX002 (ip), vehicle: carboxymethylcellulose (CMC) 103 % of control and 106 % of control | dose: 400.0 mg/kg/injection, schedule: Q04DX003 (ip), vehicle: carboxymethylcellulose (CMC) 112 % of control

O=[N+]([O-])c1cccc(/C=C/C=C/c2ccc(Cl)c(Cl)c2)c1
inactive: [2] 100 % of control | [4] 93 % of control | [6] 96 % of control

C/C(=C/C(=O)O)C(=O)Nc1cccc2c(NC(=O)/C(C)=C/C(=O)O)cccc12
inactive: [12] 95 % of control | [13] 96 % of control | [14] 96 % of control

COc1ccc(/C=C\C(=O)NCCCCNC(=O)/C=C/c2ccc(OC)cc2)cc1
inactive: dose: 100.0 mg/kg/injection, schedule: Q01DX001 (ip), vehicle: saline 101 % of control | dose: 200.0 mg/kg/injection, schedule: Q01DX001 (ip), vehicle: saline 88 % of control

Cc1ccc([N+](=O)[O-])cc1NC(=O)Nc1cccc(Cl)c1Cl
inactive: [2] 86 % of control | [4] 96 % of control | [6] 90 % of control

CN(C)c1ccc(C=O)c(Br)c1
inactive: [1] 96 % of control | [15] 96 % of control | [3] 91 % of control | [16] 111 % of control | [5] 103 % of control | [17] 100 % of control

CS(=O)(=O)OCC1CCC(COS(C)(=O)=O)CC1 (centres undefined)
inactive: [15] 103 % of control | [16] 100 % of control | [17] 102 % of control

NC(=S)N/N=C/C=N/NC(N)=S
inactive: dose: 50.0 mg/kg/injection, schedule: Q01DX001 (ip), vehicle: carboxymethylcellulose (CMC) 97 % of control | [12] 91 % of control | [13] 95 % of control | [14] 101 % of control | dose: 1.0 micrograms/kg/injection, schedule: Q01DX009 (ip), vehicle: carboxymethylcellulose (CMC) 107 % of control | dose: 5.0 micrograms/kg/injection, schedule: Q01DX009 (ip), vehicle: carboxymethylcellulose (CMC) 98 % of control

CCCCNC(=O)N(C1CCCCC1)C1CCCCC1
inactive: [1] 103 % of control | [3] 92 % of control | [5] 92 % of control

CN(C)c1ccc(C=Nc2cc(Cl)ccc2Cl)cc1
inactive: [15] 89 % of control | [16] 88 % of control | [17] 89 % of control

Nc1nc2c(ncn2-c2ccccc2Cl)c(=O)[nH]1
inactive: dose: 100.0 mg/kg/injection, schedule: Q01DX001 (ip), vehicle: saline with Tween-80 95 % of control | dose: 200.0 mg/kg/injection, schedule: Q01DX001 (ip), vehicle: saline with Tween-80 92 % of control | dose: 400.0 mg/kg/injection, schedule: Q01DX001 (ip), vehicle: saline with Tween-80 100 % of control
